Measurements taken from patent US20160194358A1, “LINEAR PEPTIDE ANTIBIOTCS” (priority 2013, published 2016).
Values after ≈ are worked out from the molar mass of the structure shown. Like-named read-outs stand apart in the source and are kept apart here. Where a SMILES comes first, the peptide text is derived from it. The star is where a group is joined. boroAla((+)-pinanediol) = C[C@H](N*)B1O[C@@H]2C[C@@H]3C[C@@H](C3(C)C)[C@]2(C)O1; Propanoyl(3-decylamino) = CCCCCCCCCCNCCC(=O)*

Assays:
MRSA strain USA300 [1] = conditions: Compound 217 with imipenem, synergy defined as sum of FICs ≦0.5
Experimental: In this assay in each axis of a 96-well plate contains a 2-fold dilution of a given agent, such that each well contains a unique combination of the agents being tested.
To create a checkerboard dilution scheme, imipenem was diluted in Mueller Hinton II Broth+0.002% Tween-80 to twice the final desired concentration, and six 2-fold serial dilutions were performed in the same media yielding seven imipenem concentrations. Dilutions of Compound 217 were prepared similarly except that ten dilutions were performed for a total of eleven concentrations. For each concentration of imipenem, 50 uL aliquots were transferred to columns 1-12 of a given row of a 96-well clear polypropylene assay plate. For each concentration of Compound 217, 50 uL were transferred to rows A-H of a given column of the same plate. […]
MRSA strain USA300 was grown overnight at 35° C. on Mueller Hinton Agar plates, and colonies were suspended in Mueller Hinton II Broth+0.002% Tween-80 to a final density of 1*10^7 cfu/ml. […] The plate was incubated at 35° C. for 22 hours after which growth was determined via visual inspection. For each sub-MIC concentration of imipenem, the concentration of Compound 217 required to prevent visible growth was recorded, and the fractional inhibitor concentration (FIC) of each agent was calculated by dividing the concentration of each agent by MIC of the agent alone. […]

[2] = system: methicillin resistant Staphylococcus aureus (MRSA) strain USA300 (NRS384); conditions: MRSA USA300 (NRS384); 35° C., 22 hours
In short: (§1)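 CLSI broth microdilution in cation-adjusted Mueller Hinton Broth with 0.002% Tween-80, two-fold dilutions starting at 64 μg/ml.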

[3] = system: Escherichia coli strain MC4100 IMP-4213, which harbors an LptD mutation; conditions: E. coli MC4100 IMP-4213; 35° C., 22 hours
In short: as §1

MRSA strain USA300 [4] = system: MRSA strain USA300
MRSA strain USA300 [5] = conditions: 0.5 ug/mL imipenem plus 0.125 ug/mL Compound 217
Experimental: Time-kill experiments were performed in 96-well incubation plates using Mueller Hinton II Broth+0.002% Tween-80 as the growth media. Individual wells contained imipenem alone, Compound 217 alone, or a combination of both agents at various concentrations. MRSA strain USA300 was grown overnight at 35° C. on Mueller Hinton Agar plates, and colonies were suspended in Mueller Hinton II Broth+0.002% Tween-80 to a final density of 2*10^8 cfu/mL. To each well of the incubation plates, 5 uL of this suspension were added, resulting in an initial density of 1*10^7 cfu/mL. Plates were incubated at 35° C., and at various time points 30 μl samples were removed, mixed 1:1 with 25 mg/ml activated carbon, serially diluted in sterile phosphate buffered saline supplemented with 0.05% Tween 20, and spotted onto Mueller Hinton Agar plates to enable cfu quantification. Colonies were counted and the cfu/ml at each time point calculated by based on the dilution factor and volume spotted.

[6] = MRSA USA300, partner Amoxicillin/Clav at 1/4x its MIC
[7] = MRSA USA300, partner Ampicillin at 1/4x its MIC
[8] = MRSA USA300, partner Azlocillin at 1/4x its MIC
[9] = MRSA USA300, partner Biapenem at 1/4x its MIC
[10] = MRSA USA300, partner Carbenicillin at 1/4x its MIC
[11] = MRSA USA300, partner Cefaclor at 1/4x its MIC
[12] = MRSA USA300, partner Cefamandole at 1/4x its MIC
[13] = MRSA USA300, partner Cefazolin at 1/4x its MIC
[14] = MRSA USA300, partner Cefdinir at 1/4x its MIC
[15] = MRSA USA300, partner Cefepime at 1/4x its MIC
[16] = MRSA USA300, partner Cefixime at 1/4x its MIC
[17] = MRSA USA300, partner Cefmetazole at 1/4x its MIC
[18] = MRSA USA300, partner Cefonicid at 1/4x its MIC
[19] = MRSA USA300, partner Cefotaxime at 1/4x its MIC
[20] = MRSA USA300, partner Cefotetan at 1/4x its MIC
[21] = MRSA USA300, partner Cefoxitin at 1/4x its MIC
[22] = MRSA USA300, partner Cefpodoxime at 1/4x its MIC
[23] = MRSA USA300, partner Cefprozil at 1/4x its MIC
[24] = MRSA USA300, partner Ceftazidime at 1/4x its MIC
[25] = MRSA USA300, partner Ceftizoxime at 1/4x its MIC
[26] = MRSA USA300, partner Ceftriaxone at 1/4x its MIC
[27] = MRSA USA300, partner Cephalothin at 1/4x its MIC
[28] = MRSA USA300, partner Doripenem at 1/4x its MIC
[29] = MRSA USA300, partner Ertapenem at 1/4x its MIC
[30] = MRSA USA300, partner Faropenem at 1/4x its MIC
[31] = MRSA USA300, partner Imipenem at 1/4x its MIC
[32] = MRSA USA300, partner Mecillinam at 1/4x its MIC
[33] = MRSA USA300, partner Meropenem at 1/4x its MIC
[34] = MRSA USA300, partner Methicillin at 1/4x its MIC
[35] = MRSA USA300, partner Mezlocillin at 1/4x its MIC
[36] = MRSA USA300, partner Moxalactam at 1/4x its MIC
[37] = MRSA USA300, partner Oxacillin at 1/4x its MIC
[38] = MRSA USA300, partner Piperacillin/tazobactam at 1/4x its MIC
[39] = MRSA USA300, partner Ticarcillin at 1/4x its MIC

## CCCCCCCCCCNCCC(=O)N[C@@H](CCCCN)C(=O)N[C@H](C(=O)N[C@@H](C)C(=O)N[C@@H](CCCCN)C(=O)N[C@@H](C)B1O[C@@H]2C[C@@H]3C[C@@H](C3(C)C)[C@]2(C)O1)[C@@H](C)O [Compound 217] ({Propanoyl(3-decylamino)}-KTAK-{boroAla((+)-pinanediol)})
MRSA strain USA300 [1]
  sum of the FICs: < 0.5
[2]
  MIC (μg/mL) S. aureus: 0.31 µg/mL (≈ 0.359 µM)
[3]
  MIC (μg/mL) E. coli: 23 µg/mL (≈ 26.7 µM)
MRSA strain USA300 [4]; [6]
  Compound 217 SIC: 0.125 µg/mL
  Fold reduction in Compound 217 MIC: 4
MRSA strain USA300 [4]; [7]
  Compound 217 SIC: 0.25 µg/mL
  Fold reduction in Compound 217 MIC: 2
MRSA strain USA300 [4]; [8]
  Compound 217 SIC: 0.125 µg/mL
  Fold reduction in Compound 217 MIC: 4
MRSA strain USA300 [4]; [9]
  Compound 217 SIC: 0.0156 µg/mL
  Fold reduction in Compound 217 MIC: 32
MRSA strain USA300 [4]; [10]
  Compound 217 SIC: 0.125 µg/mL
  Fold reduction in Compound 217 MIC: 4
MRSA strain USA300 [4]; [11]
  Compound 217 SIC: 0.125 µg/mL
  Fold reduction in Compound 217 MIC: 4
MRSA strain USA300 [4]; [12]
  Compound 217 SIC: 0.125 µg/mL
  Fold reduction in Compound 217 MIC: 4
MRSA strain USA300 [4]; [13]
  Compound 217 SIC: 0.0625 µg/mL
  Fold reduction in Compound 217 MIC: 8
MRSA strain USA300 [4]; [14]
  Compound 217 SIC: 0.0078 µg/mL
  Fold reduction in Compound 217 MIC: 64
MRSA strain USA300 [4]; [15]
  Compound 217 SIC: 0.03125 µg/mL
  Fold reduction in Compound 217 MIC: 16
MRSA strain USA300 [4]; [16]
  Compound 217 SIC: 0.0625 µg/mL
  Fold reduction in Compound 217 MIC: 8
MRSA strain USA300 [4]; [17]
  Compound 217 SIC: 0.125 µg/mL
  Fold reduction in Compound 217 MIC: 4
MRSA strain USA300 [4]; [18]
  Compound 217 SIC: 0.125 µg/mL
  Fold reduction in Compound 217 MIC: 4
MRSA strain USA300 [4]; [19]
  Compound 217 SIC: 0.0625 µg/mL
  Fold reduction in Compound 217 MIC: 8
MRSA strain USA300 [4]; [20]
  Compound 217 SIC: 0.125 µg/mL
  Fold reduction in Compound 217 MIC: 4
MRSA strain USA300 [4]; [21]
  Compound 217 SIC: 0.125 µg/mL
  Fold reduction in Compound 217 MIC: 4
MRSA strain USA300 [4]; [22]
  Compound 217 SIC: 0.0625 µg/mL
  Fold reduction in Compound 217 MIC: 8
MRSA strain USA300 [4]; [23]
  Compound 217 SIC: 0.125 µg/mL
  Fold reduction in Compound 217 MIC: 4
MRSA strain USA300 [4]; [24]
  Compound 217 SIC: 0.125 µg/mL
  Fold reduction in Compound 217 MIC: 4
MRSA strain USA300 [4]; [25]
  Compound 217 SIC: 0.0625 µg/mL
  Fold reduction in Compound 217 MIC: 8
MRSA strain USA300 [4]; [26]
  Compound 217 SIC: 0.03125 µg/mL
  Fold reduction in Compound 217 MIC: 16
MRSA strain USA300 [4]; [27]
  Compound 217 SIC: 0.03125 µg/mL
  Fold reduction in Compound 217 MIC: 16
MRSA strain USA300 [4]; [28]
  Compound 217 SIC: 0.03125 µg/mL
  Fold reduction in Compound 217 MIC: 16
MRSA strain USA300 [4]; [29]
  Compound 217 SIC: 0.125 µg/mL
  Fold reduction in Compound 217 MIC: 4
MRSA strain USA300 [4]; [30]
  Compound 217 SIC (μg/ml): ≦0.0039 μg/ml
  Fold reduction in Compound 217 MIC: >128
MRSA strain USA300 [4]; [31]
  Compound 217 SIC: 0.03125 µg/mL
  Fold reduction in Compound 217 MIC: 16
MRSA strain USA300 [4]; [32]
  Compound 217 SIC: 0.25 µg/mL
  Fold reduction in Compound 217 MIC: 2
MRSA strain USA300 [4]; [33]
  Compound 217 SIC: 0.01563 µg/mL
  Fold reduction in Compound 217 MIC: 32
MRSA strain USA300 [4]; [34]
  Compound 217 SIC: 0.125 µg/mL
  Fold reduction in Compound 217 MIC: 4
MRSA strain USA300 [4]; [35]
  Compound 217 SIC: 0.125 µg/mL
  Fold reduction in Compound 217 MIC: 4
MRSA strain USA300 [4]; [36]
  Compound 217 SIC: 0.03125 µg/mL
  Fold reduction in Compound 217 MIC: 16
MRSA strain USA300 [4]; [37]
  Compound 217 SIC: 0.0625 µg/mL
  Fold reduction in Compound 217 MIC: 8
MRSA strain USA300 [4]; [38]
  Compound 217 SIC: 0.125 µg/mL
  Fold reduction in Compound 217 MIC: 4
MRSA strain USA300 [4]; [39]
  Compound 217 SIC: 0.0625 µg/mL
  Fold reduction in Compound 217 MIC: 8
MRSA strain USA300 [4]; MRSA strain USA300, partner beta-lactam: None
  Compound 217 MIC: 0.5 mg/L
MRSA strain USA300 [4]; partner beta-lactam at 1/4x its MIC
  synergy with partner beta-lactam antibiotics (SIC ≤ 1/4 MIC): synergize
MRSA strain USA300 [5]
  time-kill: reduction of viable cells, combination vs either agent alone: synergistic
